Assay results from publication PMC10349806 (Nature Communications, 2023).
Several values for one entry are separate records, joined by “and”; a condition that tells them apart may be missing. Identical values can stand only once. Like-named read-outs stand apart in the source and are kept apart here.

Columns and labels:
PfCRT variant E207H = assay: CQ uptake assay, oocytes expressing E207H; type: cell-based, Plasmodium falciparum; settings: for Km: read-out: KM ± SEM
Description: (§1) Site-directed mutagenesis of PfCRT^Dd2 was performed as described using the megaprimer method with overlap extension[21],[54]. The primer pairs used are listed in Supplementary Table 6. Please note that a codon-optimized and oocyte-adapted version of PfCRT^Dd2 was used[22] (Supplementary Fig. 16). The resulting DNA fragment was cloned into the SP64T expression vector and verified by sequencing.
(§2) Oocytes were obtained as described previously. Briefly, adult (>2 years old) female X. laevis frogs (NASCO) were anesthetized in a cooled solution of ethyl 3-amino benzoate methanesulfonate (0.1%, w/v), followed by a surgical removal of parts of the ovary. The ovary lobes were carefully dissected and small pieces of oocytes were incubated in Ca^2+-free ND96 buffer (96 mM NaCl, 2 mM KCl, 1 mM MgCl2 buffered with 5 mM HEPES/NaOH, pH 7.5) supplemented with collagenase D (0.1%, w/v; Roche), BSA (0.5%, w/v), and 9 mm Na2HPO4 at 18 °C for 14-16 h while gentle shaking. After incubation, the oocytes were carefully washed several times with ND96 buffer (96 mM NaCl, 2 mM KCl, 1.8 mM CaCl2, 1 mM MgCl2 buffered with 5 mM HEPES/NaOH, pH 7.5) supplemented with 100 mg l^−1 gentamycin). Defolliculated and healthy-looking stage V-VI oocytes were manually selected for RNA microinjection. The RNA was generated as following: The codon-optimized sequences of PfCRT variants were cloned into the pSP64T expression vector. After vector linearization using the restriction endonucleases BamHI or SalI (New England Biolabs), transcription was performed using the in vitro SP6 mMessage mMachine Kit (Ambion)[34]. The obtained RNA was kept at −80 °C and diluted with nuclease-free water to a concentration of 0.6 μg μl^−1. Precision-bore glass capillary tubes (3.5-inch glass capillaries; Drummond Scientific Co.) were pulled on a vertical puller (P-87 Flaming/Brown micropipette puller, Sutter Instrument Co.), graduated, and placed on a microinjector (Nanoject II Auto-Nanoliter Injector, Drummond Scientific Co.). 50 nl of nuclease-free water alone (control oocytes) or 50 nl of 0.6 μg μl^−1 RNA were injected under stereomicroscopic control. Injected oocytes were incubated for 46–72 h at 18 °C with twice-daily buffer changes before usage in experiments.
Drug uptake assays were performed as described previously[21],[22],[24],[34]. […] The direction of radio-labeled drug transport is here from the mostly acidic extracellular solution (pH 4.5 or 6.0, as indicated) into the oocyte cytosol (pH ∼ 7.2), which corresponds to the efflux of drug from the acidic digestive vacuole (pH 5.2) into the parasite cytoplasm (pH 7.2). The topology of PfCRT in the oolemma is such that both the N- and C-terminus face the extracellular milieu[3],[22]. In the parasite, the N- and C-terminus face the lumen of the digestive vacuole. […] For determination of the amount of drug uptake for each oocyte, the reaction medium was removed and the oocytes were washed three times with 2 ml of ice-cold ND96 buffer. Each oocyte was individually transferred to a scintillation vial containing 5% sodium dodecyl sulfate (200 μl) for lysis. […] Oocytes that were injected with water instead of RNA were analyzed in parallel, representing the uptake of a drug by diffusion and/or endogenous permeation pathways. The resulting value represents the “background“ level of drug accumulation in oocytes (in-depth discussion in[22]). The specific PfCRT-mediated uptake was determined by subtracting the corresponding background value measured in water-injected oocytes from that of PfCRT-expressing oocytes. In all cases, at least three separate experiments were performed on oocytes from different frogs (biological replicate), and for each condition in an experiment, measurements were made from 10 oocytes per treatment. For pH 5.5, 6.0, and 6.5, ND96 was buffered with 5 mM MES/Tris base.

PfCRT variant H97A = biological target: T1, PfCRT variant H97A (Plasmodium falciparum, UniProt Q9N623, A220S/H97A/I356T/K76T/M74I/N326S/N75E/Q271E/R371I); assay: CQ uptake assay, oocytes expressing H97A; type: cell-based
T1 sequence (Q9N623 1-424 M74I/N75E/K76T/H97A/A220S/Q271E/N326S/I356T/R371I): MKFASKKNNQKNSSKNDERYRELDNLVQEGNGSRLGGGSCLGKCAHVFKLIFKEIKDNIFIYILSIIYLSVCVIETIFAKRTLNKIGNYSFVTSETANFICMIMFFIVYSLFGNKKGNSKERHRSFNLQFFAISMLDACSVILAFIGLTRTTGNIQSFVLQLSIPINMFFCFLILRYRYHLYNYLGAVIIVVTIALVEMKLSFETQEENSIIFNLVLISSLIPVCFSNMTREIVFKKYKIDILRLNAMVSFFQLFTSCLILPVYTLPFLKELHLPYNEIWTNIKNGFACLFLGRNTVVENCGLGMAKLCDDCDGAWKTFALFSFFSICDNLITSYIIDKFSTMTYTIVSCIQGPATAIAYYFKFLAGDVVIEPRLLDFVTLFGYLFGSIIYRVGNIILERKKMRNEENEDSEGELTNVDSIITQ
Description: as §1, §2
Drug uptake assays were performed as described previously[21],[22],[24],[34]. […] Oocytes that were injected with water instead of RNA were analyzed in parallel, representing the uptake of a drug by diffusion and/or endogenous permeation pathways. […] The specific PfCRT-mediated uptake was determined by subtracting the corresponding background value measured in water-injected oocytes from that of PfCRT-expressing oocytes. […]

[1] = E207H, 50 µM CQ, 1 h, mean ± SEM

Structure (SMILES): CCN(CC)CCCC(C)Nc1ccnc2cc(Cl)ccc12 (stereo not shown) [CQ, chloroquine]
- E207H transport activity (PfCRT variant E207H; 10 μM CQ, pH 4.5): 0.41 pmol oocyte-1 h-1 and 0.39 pmol oocyte-1 h-1 and 0.48 pmol oocyte-1 h-1
- E207H transport activity (PfCRT variant E207H; 10 μM CQ, pH 6.0): 0.74 pmol oocyte-1 h-1 and 0.57 pmol oocyte-1 h-1 and 1.12 pmol oocyte-1 h-1 and 0.76 pmol oocyte-1 h-1
- E207H transport activity (PfCRT variant E207H; 50 μM CQ, pH 4.5): 2.07 pmol oocyte-1 h-1 and 1.95 pmol oocyte-1 h-1 and 1.52 pmol oocyte-1 h-1
- E207H transport activity (PfCRT variant E207H; 50 μM CQ, pH 6.0): 4.71 pmol oocyte-1 h-1 and 5.16 pmol oocyte-1 h-1 and 4.70 pmol oocyte-1 h-1 and 3.98 pmol oocyte-1 h-1
- E207H transport activity (PfCRT variant E207H; 100 μM CQ, pH 4.5): 4.26 pmol oocyte-1 h-1 and 4.32 pmol oocyte-1 h-1 and 4.33 pmol oocyte-1 h-1 and 5.17 pmol oocyte-1 h-1
- E207H transport activity (PfCRT variant E207H; 100 μM CQ, pH 6.0): 8.51 pmol oocyte-1 h-1 and 8.56 pmol oocyte-1 h-1 and 9.98 pmol oocyte-1 h-1 and 9.68 pmol oocyte-1 h-1
- E207H transport activity (PfCRT variant E207H; 200 μM CQ, pH 4.5): 6.09 pmol oocyte-1 h-1 and 7.31 pmol oocyte-1 h-1 and 7.21 pmol oocyte-1 h-1
- E207H transport activity (PfCRT variant E207H; 200 μM CQ, pH 6.0): 12.59 pmol oocyte-1 h-1 and 12.95 pmol oocyte-1 h-1 and 14.47 pmol oocyte-1 h-1 and 12.58 pmol oocyte-1 h-1
- E207H transport activity (PfCRT variant E207H; 300 μM CQ, pH 4.5): 7.95 pmol oocyte-1 h-1 and 7.89 pmol oocyte-1 h-1 and 7.92 pmol oocyte-1 h-1 and 8.79 pmol oocyte-1 h-1
- E207H transport activity (PfCRT variant E207H; 300 μM CQ, pH 6.0): 15.93 pmol oocyte-1 h-1 and 18.38 pmol oocyte-1 h-1 and 15.91 pmol oocyte-1 h-1 and 15.89 pmol oocyte-1 h-1
- E207H transport activity (PfCRT variant E207H; 400 μM CQ, pH 4.5): 8.22 pmol oocyte-1 h-1 and 9.32 pmol oocyte-1 h-1 and 10.99 pmol oocyte-1 h-1 and 9.19 pmol oocyte-1 h-1
- E207H transport activity (PfCRT variant E207H; 400 μM CQ, pH 6.0): 18.75 pmol oocyte-1 h-1 and 17.55 pmol oocyte-1 h-1 and 18.62 pmol oocyte-1 h-1
- E207H transport activity (PfCRT variant E207H; 500 μM CQ, pH 4.5): 8.40 pmol oocyte-1 h-1 and 9.28 pmol oocyte-1 h-1 and 9.33 pmol oocyte-1 h-1 and 9.38 pmol oocyte-1 h-1
- E207H transport activity (PfCRT variant E207H; 500 μM CQ, pH 6.0): 19.42 pmol oocyte-1 h-1 and 18.73 pmol oocyte-1 h-1 and 21.15 pmol oocyte-1 h-1 and 18.43 pmol oocyte-1 h-1
- E207H transport activity pH 4.5 (PfCRT variant E207H; CQ uptake, oocytes expressing E207H, pH 4.5, individual replicates (Fig 6c)): 2.07 pmol oocyte-1 h-1 and 1.95 pmol oocyte-1 h-1 and 1.52 pmol oocyte-1 h-1
- E207H transport activity pH 5.0 (PfCRT variant E207H; CQ uptake, oocytes expressing E207H, pH 5.0, individual replicates (Fig 6c)): 2.16 pmol oocyte-1 h-1 and 3.19 pmol oocyte-1 h-1 and 2.08 pmol oocyte-1 h-1 and 1.56 pmol oocyte-1 h-1
- E207H transport activity pH 5.5 (PfCRT variant E207H; CQ uptake, oocytes expressing E207H, pH 5.5, individual replicates (Fig 6c)): 2.52 pmol oocyte-1 h-1 and 2.31 pmol oocyte-1 h-1 and 4.16 pmol oocyte-1 h-1 and 3.55 pmol oocyte-1 h-1
- E207H transport activity pH 6.0 (PfCRT variant E207H; CQ uptake, oocytes expressing E207H, pH 6.0, individual replicates (Fig 6c)): 4.71 pmol oocyte-1 h-1 and 5.16 pmol oocyte-1 h-1 and 4.70 pmol oocyte-1 h-1 and 3.98 pmol oocyte-1 h-1
- E207H transport activity pH 6.5 (PfCRT variant E207H; CQ uptake, oocytes expressing E207H, pH 6.5, individual replicates (Fig 6c)): 3.76 pmol oocyte-1 h-1 and 4.49 pmol oocyte-1 h-1 and 4.51 pmol oocyte-1 h-1 and 2.60 pmol oocyte-1 h-1
- E207H transport activity pH 7.0 (PfCRT variant E207H; CQ uptake, oocytes expressing E207H, pH 7.0, individual replicates (Fig 6c)): 2.49 pmol oocyte-1 h-1 and 3.47 pmol oocyte-1 h-1 and 3.41 pmol oocyte-1 h-1 and 2.67 pmol oocyte-1 h-1
- Vmax ± SEM (PfCRT variant E207H; E207H, pH 4.5): 13 ± 1 pmol h^−1 oocyte ^−1
- Km (PfCRT variant E207H; E207H, pH 4.5): 230 ± 35 µM
- Vmax ± SEM (PfCRT variant E207H; E207H, pH 6.0): 29 ± 1 pmol h^−1 oocyte ^−1
- Km (PfCRT variant E207H; E207H, pH 6.0): 230 ± 20 µM
- Activity at pH 4.5 (PfCRT variant E207H; [1]): 1.99 ± 0.16 pmol h-1 oocyte-1
- Activity at pH 6.0 (PfCRT variant E207H; [1]): 4.64 ± 0.21 pmol h-1 oocyte-1
- R-value (PfCRT variant E207H; E207H, CQ transport at pH 4.5 / pH 6.0): 0.43 ± 0.03
- E207H transport activity pH 4.5 (PfCRT variant E207H; pH 4.5, individual replicates, Fig 6b): 2.07 pmol oocyte-1 h-1 and 1.95 pmol oocyte-1 h-1 and 1.52 pmol oocyte-1 h-1
- E207H transport activity pH 6.0 (PfCRT variant E207H; pH 6.0, individual replicates, Fig 6b): 4.71 pmol oocyte-1 h-1 and 5.16 pmol oocyte-1 h-1 and 4.70 pmol oocyte-1 h-1 and 3.98 pmol oocyte-1 h-1
- E207H R-value (PfCRT variant E207H; ratio of activity pH 4.5 / pH 6.0): 0.51 and 0.40 and 0.41 and 0.38
- Activity at pH 6.0 (PfCRT variant H97A; H97A, 50 µM CQ, 1 h, mean ± SEM): 6.57 ± 0.71 pmol h-1 oocyte-1
- R-value (PfCRT variant H97A; H97A, CQ transport at pH 4.5 / pH 6.0): 0.40 and 0.40 ± 0.04
- H97A transport activity pH 4.5 (PfCRT variant H97A; pH 4.5, single replicates, Fig 1d left): 3.71 pmol oocyte-1 h-1 and 4.69 pmol oocyte-1 h-1 and 2.51 pmol oocyte-1 h-1 and 3.21 pmol oocyte-1 h-1 and 2.32 pmol oocyte-1 h-1 and 1.49 pmol oocyte-1 h-1 and 2.15 pmol oocyte-1 h-1 and 1.58 pmol oocyte-1 h-1
- H97A transport activity pH 6.0 (PfCRT variant H97A; pH 6.0, single replicates, Fig 1d left): 9.31 pmol oocyte-1 h-1 and 6.25 pmol oocyte-1 h-1 and 4.00 pmol oocyte-1 h-1 and 9.52 pmol oocyte-1 h-1 and 5.42 pmol oocyte-1 h-1 and 3.89 pmol oocyte-1 h-1 and 6.61 pmol oocyte-1 h-1 and 7.56 pmol oocyte-1 h-1
